This note sets out measurements from the supplement of paper PMC10307832.

Holding throughout (assay): relative viability (nuclei count vs DMSO), 5 days (fraction); higher = more cells survive
Compound in one assay: COc1cc(Nc2c(C#N)cnc3cc(OCCCN4CCN(C)CC4)c(OC)cc23)c(Cl)cc1Cl [Bosutinib]
The method in brief: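 Viability was read as treated-well nuclei divided by vehicle-well nuclei, using the median across plates. Lung cancer cell lines in 1536-well plates were kept overnight at 37 °C, pinned with five √10-spaced library-drug doses, and after 5 days were Hoechst-stained, imaged at 4× and counted in MetaXpress. Plates passed only with control CV below 25% and at least one doubling.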

Compound in the assay “Bosutinib + Lapatinib”: COc1cc(Nc2c(C#N)cnc3cc(OCCCN4CCN(C)CC4)c(OC)cc23)c(Cl)cc1Cl [Bosutinib] + CS(=O)(=O)CCNCc1ccc(-c2ccc3ncnc(Nc4ccc(OCc5cccc(F)c5)c(Cl)c4)c3c2)o1 [Lapatinib] (partner 2 µM)
Summed up:
(§1)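 The day after seeding in 1536-well plates, lung cancer cell lines were treated by pin tool with a single drug, or with a fixed anchor-drug dose together with five library-drug doses (not always all listed) in √10 steps. After 5 days, a combined fix-and-stain solution (final 0.05% Triton X-100, 1% formaldehyde, 1 ug/ml Hoechst) was added. Nuclei counted on 4× images gave relative viability as treated counts over vehicle counts, reported as the median of duplicate plates.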

Compound in the assay “Bosutinib + AZD7762”: COc1cc(Nc2c(C#N)cnc3cc(OCCCN4CCN(C)CC4)c(OC)cc23)c(Cl)cc1Cl [Bosutinib] + NC(=O)Nc1cc(-c2cccc(F)c2)sc1C(=O)N[C@H]1CCCNC1 [AZD7762] (partner 0.2 µM)
The method in brief:
as §1

Compound in the assay “Bosutinib + Vorinostat”: COc1cc(Nc2c(C#N)cnc3cc(OCCCN4CCN(C)CC4)c(OC)cc23)c(Cl)cc1Cl [Bosutinib] + O=C(CCCCCCC(=O)Nc1ccccc1)NO [Vorinostat] (partner 1 µM)
The method in brief: as §1

Compound in the assay “Bosutinib + Trametinib”: COc1cc(Nc2c(C#N)cnc3cc(OCCCN4CCN(C)CC4)c(OC)cc23)c(Cl)cc1Cl [Bosutinib] + CC(=O)Nc1cccc(-n2c(=O)n(C3CC3)c(=O)c3c(Nc4ccc(I)cc4F)n(C)c(=O)c(C)c32)c1 [Trametinib] (partner 0.02 µM)
Summed up:
as §1

Consider NCI-H838, for which the relative viability came out at 0.975 with Bosutinib (0.01 µM); 0.942 with Bosutinib (0.03162 µM); 0.953 with Bosutinib (0.1 µM); 0.693 with Bosutinib (1 µM); 1.18 with Bosutinib + Lapatinib (first compound 0.01 µM); 0.94 with Bosutinib + Lapatinib (first compound 0.03162 µM). The relative viability was 0.922 in the assay with Bosutinib + Lapatinib (first compound 0.1 µM); 0.604 in the assay with Bosutinib + Lapatinib (first compound 1 µM); 0.994 with Bosutinib + AZD7762 (first compound 0.01 µM); 0.914 in the assay with Bosutinib + AZD7762 (first compound 0.03162 µM); 0.892 with Bosutinib + AZD7762 (first compound 0.1 µM); 0.807 with Bosutinib + AZD7762 (first compound 1 µM). The relative viability was 0.741 with Bosutinib + Vorinostat (first compound 0.01 µM); 0.766 in the assay with Bosutinib + Vorinostat (first compound 0.03162 µM); 0.755 in the assay with Bosutinib + Vorinostat (first compound 0.1 µM); 0.746 in the assay with Bosutinib + Vorinostat (first compound 1 µM); 0.518 with Bosutinib + Trametinib (first compound 0.01 µM); 0.483 in the assay with Bosutinib + Trametinib (first compound 0.03162 µM). Moreover, the values for the relative viability in the assay with Bosutinib + Trametinib (first compound 0.1 µM) and with Bosutinib + Trametinib (first compound 1 µM) were 0.472 and 0.316, respectively.
As for NCI-H3122, the relative viability with Bosutinib (0.01 µM) stood at 1.02; with Bosutinib (0.03162 µM) it was 1.02; in the assay with Bosutinib (0.1 µM), 1.01; with Bosutinib (1 µM), 0.993; in the assay with Bosutinib + Lapatinib (first compound 0.01 µM), 0.99; with Bosutinib + Lapatinib (first compound 0.03162 µM), 1.05. Besides, the relative viability is 1.02 with Bosutinib + Lapatinib (first compound 0.1 µM); 0.933 with Bosutinib + Lapatinib (first compound 1 µM); 1.01 with Bosutinib + AZD7762 (first compound 0.01 µM); 0.884 with Bosutinib + AZD7762 (first compound 0.03162 µM); 0.947 with Bosutinib + AZD7762 (first compound 0.1 µM); 0.975 with Bosutinib + AZD7762 (first compound 1 µM). Besides, the relative viability in the assay with Bosutinib + Vorinostat (first compound 0.01 µM) turned out to be 0.991; with Bosutinib + Vorinostat (first compound 0.03162 µM), 0.917; with Bosutinib + Vorinostat (first compound 0.1 µM) it was 0.967; with Bosutinib + Vorinostat (first compound 1 µM), 0.953; with Bosutinib + Trametinib (first compound 0.01 µM), 0.203; in the assay with Bosutinib + Trametinib (first compound 0.03162 µM), 0.273. For the same cell line, the values for the relative viability with Bosutinib + Trametinib (first compound 0.1 µM) and in the assay with Bosutinib + Trametinib (first compound 1 µM) were 0.205 and 0.256, respectively.
SK-MES-1: the relative viability came to 1.02 with Bosutinib (0.01 µM); 1.01 with Bosutinib (0.03162 µM); 1.01 in the assay with Bosutinib (0.1 µM); 0.815 with Bosutinib (1 µM); 0.435 with Bosutinib + Lapatinib (first compound 0.01 µM); 0.512 with Bosutinib + Lapatinib (first compound 0.03162 µM). Further, the relative viability with Bosutinib + Lapatinib (first compound 0.1 µM) was 0.555; with Bosutinib + Lapatinib (first compound 1 µM), 0.505; with Bosutinib + Vorinostat (first compound 0.01 µM) it was 1.21; in the assay with Bosutinib + Vorinostat (first compound 0.03162 µM) it was 1.13; with Bosutinib + Vorinostat (first compound 0.1 µM), 1.12; in the assay with Bosutinib + Vorinostat (first compound 1 µM) it was 0.812. Besides, the relative viability with Bosutinib + Trametinib (first compound 0.01 µM) stood at 0.55; with Bosutinib + Trametinib (first compound 0.03162 µM), 0.547; with Bosutinib + Trametinib (first compound 0.1 µM) it was 0.547; with Bosutinib + Trametinib (first compound 1 µM), 0.39.
In the case of NCI-H1944, the relative viability in the assay with Bosutinib (0.01 µM) was determined as 0.965; with Bosutinib (0.03162 µM), 0.92; with Bosutinib (0.1 µM) it was 0.913; with Bosutinib (1 µM), 0.888; with Bosutinib + Lapatinib (first compound 0.01 µM) it was 0.834; with Bosutinib + Lapatinib (first compound 0.03162 µM) it was 0.803. Moreover, the relative viability with Bosutinib + Lapatinib (first compound 0.1 µM) stood at 0.865; with Bosutinib + Lapatinib (first compound 1 µM), 0.736; with Bosutinib + AZD7762 (first compound 0.01 µM) it was 0.558; with Bosutinib + AZD7762 (first compound 0.03162 µM), 0.533; with Bosutinib + AZD7762 (first compound 0.1 µM) it was 0.476; with Bosutinib + AZD7762 (first compound 1 µM), 0.394. The relative viability with Bosutinib + Vorinostat (first compound 0.01 µM) amounted to 0.608; with Bosutinib + Vorinostat (first compound 0.03162 µM) it was 0.577; with Bosutinib + Vorinostat (first compound 0.1 µM), 0.572; in the assay with Bosutinib + Vorinostat (first compound 1 µM), 0.569; with Bosutinib + Trametinib (first compound 0.01 µM), 0.415; with Bosutinib + Trametinib (first compound 0.03162 µM), 0.45. For the same cell line, the relative viability amounted to 0.394 with Bosutinib + Trametinib (first compound 0.1 µM) and 0.327 with Bosutinib + Trametinib (first compound 1 µM).
For the cell line LK-2, the relative viability in the assay with Bosutinib (0.01 µM) amounted to 0.942; with Bosutinib (0.03162 µM) it was 0.972; in the assay with Bosutinib (0.1 µM), 0.929; with Bosutinib (1 µM), 0.867; with Bosutinib + Lapatinib (first compound 0.01 µM), 0.848; in the assay with Bosutinib + Lapatinib (first compound 0.03162 µM), 1.12. Moreover, the relative viability with Bosutinib + Lapatinib (first compound 0.1 µM) came out at 0.944; with Bosutinib + Lapatinib (first compound 1 µM) it was 0.803; with Bosutinib + AZD7762 (first compound 0.01 µM) it was 0.387; in the assay with Bosutinib + AZD7762 (first compound 0.03162 µM), 0.417; in the assay with Bosutinib + AZD7762 (first compound 0.1 µM), 0.461; with Bosutinib + AZD7762 (first compound 1 µM) it was 0.2. Also, the relative viability amounted to 0.267 with Bosutinib + Vorinostat (first compound 0.01 µM); 0.278 with Bosutinib + Vorinostat (first compound 0.03162 µM); 0.263 with Bosutinib + Vorinostat (first compound 0.1 µM); 0.313 with Bosutinib + Vorinostat (first compound 1 µM); 0.873 with Bosutinib + Trametinib (first compound 0.01 µM); 0.784 with Bosutinib + Trametinib (first compound 0.03162 µM). Besides, the relative viability with Bosutinib + Trametinib (first compound 0.1 µM) stood at 0.667; with Bosutinib + Trametinib (first compound 1 µM), 0.672.
Consider PC-3 [JPC-3], for which the relative viability with Bosutinib (0.01 µM) came out at 1.04; with Bosutinib (0.03162 µM), 1.07; with Bosutinib (0.1 µM), 1.06; in the assay with Bosutinib (1 µM), 0.745; with Bosutinib + Lapatinib (first compound 0.01 µM) it was 0.432; in the assay with Bosutinib + Lapatinib (first compound 0.03162 µM), 0.428. The relative viability with Bosutinib + Lapatinib (first compound 0.1 µM) was 0.431; with Bosutinib + Lapatinib (first compound 1 µM), 0.505; with Bosutinib + AZD7762 (first compound 0.01 µM), 0.787; with Bosutinib + AZD7762 (first compound 0.03162 µM), 0.738; in the assay with Bosutinib + AZD7762 (first compound 0.1 µM) it was 0.689; with Bosutinib + AZD7762 (first compound 1 µM), 0.641. The relative viability with Bosutinib + Vorinostat (first compound 0.01 µM) is 0.853; with Bosutinib + Vorinostat (first compound 0.03162 µM) it was 0.983; with Bosutinib + Vorinostat (first compound 0.1 µM), 0.918; in the assay with Bosutinib + Vorinostat (first compound 1 µM), 0.541; with Bosutinib + Trametinib (first compound 0.01 µM), 0.725; with Bosutinib + Trametinib (first compound 0.03162 µM) it was 0.691. Moreover, the relative viability with Bosutinib + Trametinib (first compound 0.1 µM) was found to be 0.647; with Bosutinib + Trametinib (first compound 1 µM), 0.467.
Regarding COR-L23, the relative viability with Bosutinib (0.01 µM) turned out to be 1.05; with Bosutinib (0.03162 µM), 0.972; in the assay with Bosutinib (0.1 µM), 1.07; with Bosutinib (1 µM), 1.03; with Bosutinib + Lapatinib (first compound 0.01 µM) it was 1.01; in the assay with Bosutinib + Lapatinib (first compound 0.03162 µM), 0.892. Moreover, the relative viability with Bosutinib + Lapatinib (first compound 0.1 µM) amounted to 1.04; in the assay with Bosutinib + Lapatinib (first compound 1 µM), 1.08; in the assay with Bosutinib + Vorinostat (first compound 0.01 µM), 0.535; in the assay with Bosutinib + Vorinostat (first compound 0.03162 µM), 0.553; with Bosutinib + Vorinostat (first compound 0.1 µM), 0.431; in the assay with Bosutinib + Vorinostat (first compound 1 µM) it was 0.561. Further, the relative viability with Bosutinib + Trametinib (first compound 0.01 µM) was 0.706; with Bosutinib + Trametinib (first compound 0.03162 µM) it was 0.548; in the assay with Bosutinib + Trametinib (first compound 0.1 µM) it was 0.568; with Bosutinib + Trametinib (first compound 1 µM), 0.541.
